Test system: gene promoters in NT2/D1-R1 control and DNMT3B knockdown cells
Test: Genome-wide promoter methylation analysis, HumanMethylation27 BeadChip (Table 15)
Assay type: cell-based, human
Conditions: three days low-dose decitabine, control NT2/D1-R1
Description: DNA methylation analysis was performed in samples in triplicate using the […] […] assay with the HumanMethylation27 BeadChip ([…]) and the BeadChip was scanned on the BeadArray Reader ([…]), according to the manufacturer's instructions. Raw data was normalized and analyzed with Genome Studio software ([…]). The HumanMethylation27 BeadChip assays 27,578 CpGs covering more than 14,000 genes, mostly from promoter regions. […] Hierarchical clustering was performed as stated above. HumanMethylation27 BeadChip data and gene expression microarray data were submitted to NCBI GEO.

## Nc1ncn([C@H]2C[C@H](O)[C@@H](CO)O2)c(=O)n1 [decitabine, 5-aza-deoxycytidine]
  genes with altered promoter methylation: 388 genes
Of 388 genes
  genes with decreased levels of promoter methylation: 305 genes

From US9476099B2 (TRUSTEES OF DARTMOUTH COLLEGE, priority 2012, dated 2016)
